In US11331269B2, “Methods and compositions targeting lung microbiota and its responding immune pathways for lung cancer treatment” (Massachusetts Institute of Technology, priority 2018, dated 2022):

Key:
IL-17A = IL-17A ELISA in BALF or serum of KP mice; type: in vivo, mouse; details: antibiotics in drinking water
Method: IL-17 levels in serum or bronchoalveolar lavage fluid were measured using a mouse IL-17A ELISA kit (eBioscience) according to the manufacturer's instructions.
IL-17 levels were measured using a mouse IL-17A ELISA kit (eBioscience) according to the manufacturer's instructions.
IL-17A levels were measured using a mouse IL-17A ELISA kit (eBioscience) according to the manufacturer's instructions.

[1] = system: IL-17 producing γδ T cells; test: Flow cytometry of IL-17 producing γδ T cells in tumor-bearing lung; type: in vivo, mouse; details: KP mice, antibiotics in drinking water
Method: Mice were injected retro-orbitally with a PE-CF594 conjugated anti-CD45 antibody (30-F11, BD Bioscience) 2 minutes prior to euthanasia to label the immune cells in the circulation. Lungs were collected, cut into small pieces, and digested with 125 U/mL collagenase IV (Worthington Biochemical) and 40 U/mL DNase I (Roche) for 30 minutes at 37° C. Dissociated lung tissue was then filtered with a 100 μm cell strainer. Spleen and lymph node samples were ground and passed through a 100 μm cell strainer. After blocking FcgRIII/II with an anti-CD16/CD32 mAb (eBioscience), single cell suspensions were stained with the following antibodies: CD45.2 (104), CD45.1 (A20), Ly6G (1A8), CD11b (M1/70), TCRβ (H57-597), TCRγδ (GL3 or UC7-13D5), CD3 (17A2), CD4 (RM4-5), CD8 (53-6.7), Vγ1 (Vg1.1, 2.11), Vγ4 (Vγ2, UC3-10A6), IFN-γ (XMG1.2), IL-17A (TC11-18H10.1), TNF-α (MP6-XT22), IL-17F (ebio18F10), CD44 (IM7), CD27 (LG.3A10), CD69 (H1.2F3), PD-1 (29F. 1A12), PD-L1 (10F.9G2), T-bet (eBio4B10), RORγt (B2D), PLZF (Mags.21F7) and Ki67 (B56) purchased from eBioscience, BD or Biolegend. […] Flow cytometry was performed on the LSR II or LSRFortessa (BD), and data were analyzed by the FlowJo software (Treestar). […]
Flow cytometry and FACS was performed as described above in Example 3. […] Flow cytometry was performed on the LSR II or LSRFortessa (BD), and data were analyzed by the FlowJo software (Treestar). […]

[2] = system: bacterial abundance in the gut; test: Fecal bacterial load by 16S rDNA-based qPCR; type: in vivo, mouse; details: SPF KP mice, metronidazole alone in drinking water
Method: Fecal pellets were collected from the colon at the time of tissue harvest. BALF and fecal samples were processed for DNA isolation using a previously established protocol (Palm, et al., Cell. 158(5):1000-1010 (2014); Turnbaugh, et al., Nature. 457(7228):480-4 (2009)). […] E. coli genomic DNA was used as a standard, with samples at 1, 0.1, 0.01, and 0.001 ng per reaction used to create a standard curve.

[3] = system: lung adenocarcinoma in KP mice; test: Tumor development (tumor burden/grade by histology) in autochthonous KP GEM model of lung adenocarcinoma; details: SPF KP mice, metronidazole alone (1 g/L) in drinking water starting 5 weeks post tumor initiation (FIG. 2E)
Source text: The genetically-engineered mouse (GEM) model of human LUAD has previously been described (DuPage, et al.). In this model, the mice harbor conditional alleles of Kras^LSL-G12D and p53^flox/flox (KP mice). Upon intratracheal infection with adenoviral vectors expressing the Cre-recombinase under the control of the Sftpc promoter, oncogenic KrasG12D is activated and the tumor suppressor p53 is deleted in lung epithelial cells to induce lung adenoma and adenocarcinoma.
Germ-free KP mice were housed in gnotobiotic isolators, which were sampled every 2 weeks and confirmed negative for bacterial and fungal contaminants by culture, fecal Gram stain, and PCR using universal 16S rRNA primers. […]
Tumor-bearing lung lobes and a portion of the spleen were fixed in 4% paraformaldehyde overnight and embedded in paraffin. […] Digitally scanned images of H&E or Ki67-stained slides were created with the Aperio ScanScope AT2 at 20× magnification and analyzed with the Aperio's WebScope software. For tumor burden quantification, tumor regions were outlined and the percentage of tumor area relative to total lung area was calculated for each mouse. For Ki67 index, tumor cells were classified based on the intensity of the nuclear Ki67 staining from 0 to 3+ by using a built-in Nuclear algorithm in the Webscope, and the percentage of nuclei with intense nuclear staining (3+) in total nuclei was calculated. […]

[4] = system: KP tumor-derived cell lines; test: In vitro cell proliferation of tumor cell lines derived from primary lung tumors of KP mice; type: cell-based, mouse; details: live cells 72 hours post treatment
Method: Tumor cell lines were derived from primary lung tumors of KP mice, and maintained in DMEM medium (Gibco) supplemented with 10% FBS (Sigma). Cells were serum-starved for 24 hours (1% FBS) before treated with recombinant human amphiregulin (Sigma-Aldrich) or recombinant mouse IL-22 (R&D Systems) at the indicated dose, or left untreated as controls. The number of live cells was determined 72 hours post treatment by counting the Trypan Blue (Gibco) negative cells or through the CellTiter-Glo Luminescent Cell Viability Assay (Promega) according to the manufacturer's instructions.

## Cc1ncc([N+](=O)[O-])n1CCO [metronidazole]
IL-17A
  IL-17A levels in the BALF or serum: lower IL-17A levels
[1]
  abundance of IL-17 producing γδ T cells in the tumor-bearing lung: dramatically decreased
[2]
  overall bacterial abundance in the gut: without substantially reducing the overall bacterial abundance in the gut
[3]
  tumor growth in the lung (tumor burden): effectively suppressed tumor growth in the lung

B1: recombinant amphiregulin: recombinant human amphiregulin (Sigma-Aldrich), EGFR ligand (protein, UniProt P15514 101-187, looked up)
Amphiregulin: SVRVEQVVKPPQNKTESENTSDKPKRKKKGGKNGKNRRNRKKKNPCNAEFQNFCIHGECKYIEHLEAVTCKCQQEYFGERCGEKSMK
[4]; recombinant human amphiregulin, serum-starved cells
  proliferation of KP tumor-derived cell lines: promoted proliferation of KP tumor-derived cell lines in a dose-dependent fashion

B2: recombinant IL-22: recombinant mouse IL-22 (R&D Systems) (protein, UniProt Q9JJY9 34-179, looked up)
Interleukin-22: LPVNTRCKLEVSNFQQPYIVNRTFMLAKEASLADNNTDVRLIGEKLFRGVSAKDQCYLMKQVLNFTLEDVLLPQSDRFQPYMQEVVPFLTKLSNQLSSCHISGDDQNIQKNVRRLKETVKKLGESGEIKAIGELDLLFMSLRNACV
[4]; recombinant mouse IL-22, serum-starved KP tumor cell lines
  tumor cell proliferation in vitro: stimulated tumor cell proliferation in vitro
